According to US7994189B2, “Dihydropyridine derivatives” (N.V. Organon, priority 2005, dated 2011):

Biological target: T1, human FSH receptor (Homo sapiens, UniProt P23945)
T1 construct: expressed in transfected cells; host or cells: Chinese Hamster Ovary (CHO) cells
T1 sequence (P23945 18-695): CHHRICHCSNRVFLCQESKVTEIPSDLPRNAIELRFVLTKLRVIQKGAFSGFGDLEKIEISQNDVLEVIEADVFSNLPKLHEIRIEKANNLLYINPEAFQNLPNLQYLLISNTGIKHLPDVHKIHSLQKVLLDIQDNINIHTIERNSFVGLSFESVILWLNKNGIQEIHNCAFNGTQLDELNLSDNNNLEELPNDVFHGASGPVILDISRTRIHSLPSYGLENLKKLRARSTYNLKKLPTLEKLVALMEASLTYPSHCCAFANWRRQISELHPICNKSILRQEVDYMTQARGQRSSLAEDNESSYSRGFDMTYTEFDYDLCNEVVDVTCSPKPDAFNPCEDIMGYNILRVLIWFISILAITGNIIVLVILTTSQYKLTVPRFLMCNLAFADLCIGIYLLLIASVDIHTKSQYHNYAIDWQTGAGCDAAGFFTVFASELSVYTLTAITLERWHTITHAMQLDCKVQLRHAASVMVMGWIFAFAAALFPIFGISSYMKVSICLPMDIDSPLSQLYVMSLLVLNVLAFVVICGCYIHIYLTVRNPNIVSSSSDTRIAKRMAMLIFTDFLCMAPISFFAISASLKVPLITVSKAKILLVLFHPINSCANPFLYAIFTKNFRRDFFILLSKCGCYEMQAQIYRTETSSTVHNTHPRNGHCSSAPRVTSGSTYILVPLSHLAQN
Experiment: CHO-FSH in vitro bioactivity (CRE/luciferase reporter gene)
Format: cell-based
Details: CHO cells stably transfected with the human FSH receptor and CRE/firefly luciferase reporter; luminescence; read-out: EC50 (concentration of test compound causing half-maximal (50%) stimulation)
Description: CHO-FSH In Vitro Bioactivity
FSH activity of compounds were tested in Chinese Hamster Ovary (CHO) cells stably transfected with the human FSH receptor and cotransfected with a cAMP responsive element (CRE)/promotor directing the expression of a firefly luciferase reporter gene. Binding of ligand to the Gs-coupled FSH receptor will result in an increase of cAMP, which in turn will induce an increased transactivation of the luciferase reporter construct. The luciferase signal was quantified using a luminescence counter. For test compounds, EC50 values (concentration of test compound causing half-maximal (50%) stimulation) were calculated. For that purpose the software program GraphPad PRISM, version 3.0 (GraphPad software Inc., San Diego) was used.

| EC50 | Structure (SMILES) |
| --- | --- |
| < 1 nM | CCCC1CC(=O)C2=C(C1)NC(C)=C(C#N)C2c1cc(Br)c(OCc2cccc(C(=O)NCC(=O)OC)c2)c(OCC)c1 (centres unmarked) [Example 24, Glycine N-3-[2-bromo-4-(3-cyano-2-methyl-5-oxo-7-propyl-1,4,5,6,7,8-hexahydroquinolin-4-yl)-6-ethoxyphenoxymethyl]benzoyl methyl ester] |
| < 1 nM | CCCC1CC(=O)C2=C(C1)NC(C)=C(C#N)C2c1cc(Br)c(OCc2ccc(C(=O)NCc3cccs3)cc2)c(OCC)c1 (centres unmarked) [Example 29, 4-[2-Bromo-4-(3-cyano-2-methyl-5-oxo-7-propyl-1,4,5,6,7,8-hexahydroquinolin-4-yl)-6-ethoxyphenoxymethyl]-N-thiophen-2-ylmethylbenzamide] |
